Marks after values point to notes of the source that are not given here.
What was measured:
Format in all cases: cell-based, human
osteonectin = assay: Western blot of osteonectin expression after exposure to ASOs; conditions: single exposure, lipofectamine, 10 μM
bone sialoprotein II = assay: Western blot of bone sialoprotein II expression after exposure to ASOs; conditions: 10 μM
[1] = test system: MDA-MB-231 breast cancer cells; assay: Clonogenicity assay (colony formation); conditions: for inhibition of colony formation (colony growth inhibition): single exposure
Description: For determining the response of MDA-MB-231 colony formation to exposure with antisense oligonucleotides and erucylphospho-NNN-trimethylpropanolamine (ErPC3) the following procedure was used. MDA-MB-231 cells were treated for various periods of time (see below), harvested and counted. Cells (5000) were then transferred into semi-solid medium containing 0.8t RPMI-methylcellulose and 30% FBS. Cells were plated onto 3.5 cm Petri-dishes (1 ml/dish) (NUNC, Wiesbaden, Germany) and usual cell culture conditions (37° C., 5% CO2 in humidified air) were applied. Colony formation (clusters of 30 or more cells) was visualized by staining with 3-[4,5-dimethylthiazol-2-yl]-2,5-diphenyltetrazolium-bromide (MTT; Serva, Heidelberg, Germany) and the resulting dark blue colonies were scored by an inverted microscope after 5-7 days. At least three dishes per treatment protocol were used.
Pending on the duration of treatment, 1×10^5-3×10^5 cells were transferred onto 6 well plates (Nunc, Wiesbaden, Germany) and grown for 24 h. For transfection, ASO stock solutions were prepared in medium without FBS. According to the protocol of the manufacturer, the respective ASO stock solution was mixed with lipofectamine to allow ASO-liposome complexes to form. To 200 μl medium containing ASO quantities resulting in 10 μM (Western blot and in vivo model) and in 5, 10, or 20 μM (clonogenicity assay) final ASO-concentrations, an equal volume of medium without FBS was added containing 5, 10, or 20 μl lipofectamine, respectively. In addition to the ASO treatment, a NSO control (20 μM final concentration with 20 μl lipofectamine) and a lipofectamine control (20 μl) were used. […] After 12 h the medium was changed, and cells were further grown for 48-72 h. In the case of a sequential combination treatment this first cycle was repeated with the respective combination partner.
The alkylphosphocholine ErPC3 was synthesized and provided by Prof. H. Eibl (MPI of Biophysical Chemistry, Göttingen, FRG). For treating MDA-MB-231 cells, ErPC3 which was kept as stock solution in ethanol and PBS (10 mM; ratio of diluents 1:1; V:V), was diluted in PBS resulting in final concentrations of 10, 14, and 20 μM. The medium containing ErPC3 was changed after 24 h in all experiments and the cells were further grown for 48-72 h without ErPC3 (for details of sequential exposure see below).
Sequential combination treatment consisted of two or three treatment cycles. The two cycle treatment started either with the ASO and was followed by ErPC3 or was performed with the reverse sequence. The three cycle treatment started either with two cycles of ASO followed by ErPC3 or an initial exposure to ErPC3 was followed by two cycles with an ASO.
Colony counts are presented as mean with corresponding standard deviation. For comparison of incidences between treatment groups the x^2 test was used and for comparison of the lesion sizes the Kruskal-Wallis test was applied. P values≦0.05 were considered significant. Predicted theoretical values of combinations were calculated according to the equation: C=a×b/100, where a and b are colony counts in percent of untreated control obtained in response to single agents. For each concentration applied theoretical values were calculated and compared with the real value of the combination. In addition, isobologram and multiple drug effect analysis was examined by a suitable program (CalcuSyn, Biosoft, Ferguson, USA) to study the nature of the interaction observed. For this purpose, the dose-effect curve for each drug alone was determined based on the experimental observations using the median-effect principle; the combination index (CI) for each combination was then calculated according to the following equation:
CI=(D)1/(Dx)1+(D)2/(Dx)2+(D1)×(D2)/(Dx)1×(Dx)2
where (D)1 and (D)2 are the doses of drug 1 and drug 2 that have x effect when used in combination and (Dx)1 and (Dx)2 are the doses of drug 1 and drug 2 that have the same x effect when used alone. […]

[2] = MDA-MB231^F (growing without FBS)
[3] = MDA-MB231, single exposure, electroporation
[4] = MDA-MB231, single exposure, lipofectamine
[5] = MDA-MB231^F (growing without FBS), single exposure, lipofectamine
[6] = MDA-MB435s, single exposure, lipofectamine
[7] = MDA-MB231, twofold exposure, lipofectamine

| Compound | osteonectin expression in relation to untreated control (100%) (osteonectin; MDA-MB231) | osteonectin expression in relation to untreated control (100%) (osteonectin; [2]) | osteonectin expression in relation to untreated control (100%) (osteonectin; MDA-MB435s) | bone sialoprotein II expression in relation to untreated control (100%) (bone sialoprotein II; [3]) | bone sialoprotein II expression in relation to untreated control (100%) (bone sialoprotein II; [4]) | bone sialoprotein II expression in relation to untreated control (100%) (bone sialoprotein II; [5]) | bone sialoprotein II expression in relation to untreated control (100%) (bone sialoprotein II; [6]) | also measured |
| --- | --- | --- | --- | --- | --- | --- | --- | --- |
| 5′-CAAACATTTTAAACATTGGG-3′ (antisense CAAACATTTTAAACATTGGG; all phosphorothioate, sugars by position and methylation of C not given here) [ASO-ON-9] | 37% | 21% | 49% | – | – | – | – | – |
| 5′-GAATCCGGTACTGTGGAAGG-3′ (antisense GAATCCGGTACTGTGGAAGG; all phosphorothioate, sugars by position and methylation of C not given here) [ASO-ON-8] | 54% | 38% | 46% | – | – | – | – | – |
| 5′-ATTCTTCATTGTTTTCTCCT-3 (antisense ATTCTTCATTGTTTTCTCCT; all phosphorothioate, sugars by position and methylation of C not given here) [ASO-BSPII-4] | – | – | – | 55% | 73% | 109% | 26% | – |
| 5′-AGGTCACAGGTCTCGAAAAA-3′ (antisense AGGTCACAGGTCTCGAAAAA; all phosphorothioate, sugars by position and methylation of C not given here) [ASO-ON-6] | 52% | 44% | 56% | – | – | – | – | – |
| 5′-TTCCGGTCTCTGTGGTGTCT-3′ [ASO-BSPII-7] | – | – | – | 25% | 58% | 37% | 51% | bone sialoprotein II expression in relation to untreated control (100%) (bone sialoprotein II; [7]): 22% |
| 5′-ACTGGTGGTGGTAGTAATTC-3′ (antisense ACTGGTGGTGGTAGTAATTC; all phosphorothioate, sugars by position and methylation of C not given here) [ASO-BSPII-9] | – | – | – | 46% | 35% | 84% | 49% | – |
| 5′-ATGCGCAGGGGGAATTCGGT (antisense ATGCGCAGGGGGAATTCGGT; all phosphorothioate, sugars by position and methylation of C not given here) [ASO-ON-4] | 50% | 31% | 62% | – | – | – | – | – |
| 5′-CTTCATTGTTTTCTCCTTCA-3′ (antisense CTTCATTGTTTTCTCCTTCA; all phosphorothioate, sugars by position and methylation of C not given here) [ASO-BSPII-3] | – | – | – | 44% | 97% | 93% | 22% | – |
| 5′-CCATCATCAAATTCTCCTAC-3′ (antisense CCATCATCAAATTCTCCTAC; all phosphorothioate, sugars by position and methylation of C not given here) [ASO-ON-2] | 61% | 17% | 64% | – | – | – | – | – |
| CCCCCCCC/C=C\CCCCCCCCCCCCOP(=O)([O-])OCCC[N+](C)(C)C [ErPC3, Erucylphospho-NNN-trimethylpropanolamine, reference compound] | – | – | – | – | – | – | – | % Control ([1]; Exp. III a, 14 μM): 52%; Mean colony no. ([1]; Exp. III a, 14 μM, control 456): 239^5); % Control ([1]; Experiment I, single treatment, 10 μM): 89%; Mean colony no. ([1]; Experiment I, single treatment, 10 μM, control 778): 691^8); % Control ([1]; Experiment I, single treatment, 14 μM): 55%; Mean colony no. ([1]; Experiment I, single treatment, 14 μM, control 778): 425^7); % Control ([1]; Experiment I, single treatment, 20 μM): 22%; Mean colony no. ([1]; Experiment I, single treatment, 20 μM, control 778): 169; % Control ([1]; Experiment II, single treatment, 10 μM): 88%; Mean colony no. ([1]; Experiment II, single treatment, 10 μM, control 705): 621^8); % Control ([1]; Experiment II, single treatment, 14 μM): 55%; Mean colony no. ([1]; Experiment II, single treatment, 14 μM, control 705): 385^7); % Control ([1]; Experiment II, single treatment, 20 μM): 25%; Mean colony no. ([1]; Experiment II, single treatment, 20 μM, control 705): 173; % Control ([1]; Experiment III b, 14 μM): 59%; Mean colony no. ([1]; Experiment III b, 14 μM, control 517): 311^5); inhibition of colony formation (colony growth inhibition) ([1]; 10 μM): 11%; inhibition of colony formation (colony growth inhibition) ([1]; 14 μM): 45%; inhibition of colony formation (colony growth inhibition) ([1]; 20 μM): 78% |
| 5′-ATTTTGGTGATTGCTTCCTC-3′ (antisense ATTTTGGTGATTGCTTCCTC; all phosphorothioate, sugars by position and methylation of C not given here) [ASO-BSPII-2] | – | – | – | 94% | 38% | 94% | 26% | – |
| 5′-CTTCATCACTTTCCTTCTCT-3′ (antisense CTTCATCACTTTCCTTCTCT; all phosphorothioate, sugars by position and methylation of C not given here) [ASO-BSPII-5] | – | – | – | 63% | 27% | 101% | 41% | bone sialoprotein II expression in relation to untreated control (100%) (bone sialoprotein II; [7]): 46% |
| 5′-CTGCCTTCCGGTCTCTGTGG-3′ (antisense CTGCCTTCCGGTCTCTGTGG; all phosphorothioate, sugars by position and methylation of C not given here) [ASO-BSPII-8] | – | – | – | 34% | 62% | 101% | 32% | bone sialoprotein II expression in relation to untreated control (100%) (bone sialoprotein II; [7]): 25% |
| 5′-TGATTGCTTCCTCTGGCAGT-3′ (antisense TGATTGCTTCCTCTGGCAGT; all phosphorothioate, sugars by position and methylation of C not given here) [ASO-BSPII-1] | – | – | – | 78% | 45% | 58% | 16% | bone sialoprotein II expression in relation to untreated control (100%) (bone sialoprotein II; [7]): 19^2) % |
| 5′-TCACTGGTGGTGGTAGTAAT-3′ (antisense TCACTGGTGGTGGTAGTAAT; all phosphorothioate, sugars by position and methylation of C not given here) [ASO-BSPII-10] | – | – | – | 40% | 33% | 30% | 39% | – |

From patent US20090017103A1, “Antisense oligonucleotides for prevention of metastasis formation of cancer cells” (priority 2003, published 2009)
